Experiments:
P-gp [1] = target: T1, P-gp (Homo sapiens, UniProt P08183); assay: in vitro transporter substrate study; assay type: in vitro ADME
P-gp [2] = target: T1, P-gp; assay: in vitro transporter inhibition study; assay type: in vitro ADME
CYP 1A2 = target: T2, CYP 1A2 (Homo sapiens, UniProt P05177)
T2 sequence (P05177 1-516): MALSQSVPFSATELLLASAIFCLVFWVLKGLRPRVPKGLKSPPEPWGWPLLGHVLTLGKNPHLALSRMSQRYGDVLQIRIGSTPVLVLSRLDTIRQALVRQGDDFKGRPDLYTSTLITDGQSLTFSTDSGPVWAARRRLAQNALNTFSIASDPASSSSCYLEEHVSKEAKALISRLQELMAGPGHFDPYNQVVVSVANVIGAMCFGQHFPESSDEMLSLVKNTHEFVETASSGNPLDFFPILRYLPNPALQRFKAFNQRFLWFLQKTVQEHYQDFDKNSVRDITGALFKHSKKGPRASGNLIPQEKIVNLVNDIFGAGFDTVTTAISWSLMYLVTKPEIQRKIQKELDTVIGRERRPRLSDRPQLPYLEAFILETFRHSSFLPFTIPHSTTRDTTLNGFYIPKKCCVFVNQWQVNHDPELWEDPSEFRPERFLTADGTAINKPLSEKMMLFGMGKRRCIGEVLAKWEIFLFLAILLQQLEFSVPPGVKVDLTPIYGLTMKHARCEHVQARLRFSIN

CYP 2B6 = target: T3, CYP 2B6 (Homo sapiens, UniProt P20813)
T3 sequence (P20813 1-491): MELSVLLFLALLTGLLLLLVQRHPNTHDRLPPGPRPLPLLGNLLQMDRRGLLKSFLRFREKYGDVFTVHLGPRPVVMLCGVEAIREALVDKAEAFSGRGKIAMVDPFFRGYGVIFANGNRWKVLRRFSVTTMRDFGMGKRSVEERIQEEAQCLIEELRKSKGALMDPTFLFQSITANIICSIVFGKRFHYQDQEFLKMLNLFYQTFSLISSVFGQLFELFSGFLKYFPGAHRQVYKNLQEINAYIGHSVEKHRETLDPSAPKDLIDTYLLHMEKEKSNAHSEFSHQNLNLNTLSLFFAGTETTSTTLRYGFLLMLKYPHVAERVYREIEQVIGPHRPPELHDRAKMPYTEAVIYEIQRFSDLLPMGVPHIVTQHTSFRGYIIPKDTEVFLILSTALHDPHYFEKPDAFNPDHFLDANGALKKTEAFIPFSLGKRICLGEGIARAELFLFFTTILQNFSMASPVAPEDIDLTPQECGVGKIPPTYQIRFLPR

CYP 2C8 = target: T4, CYP 2C8 (Homo sapiens, UniProt P10632)
T4 sequence (P10632 1-490): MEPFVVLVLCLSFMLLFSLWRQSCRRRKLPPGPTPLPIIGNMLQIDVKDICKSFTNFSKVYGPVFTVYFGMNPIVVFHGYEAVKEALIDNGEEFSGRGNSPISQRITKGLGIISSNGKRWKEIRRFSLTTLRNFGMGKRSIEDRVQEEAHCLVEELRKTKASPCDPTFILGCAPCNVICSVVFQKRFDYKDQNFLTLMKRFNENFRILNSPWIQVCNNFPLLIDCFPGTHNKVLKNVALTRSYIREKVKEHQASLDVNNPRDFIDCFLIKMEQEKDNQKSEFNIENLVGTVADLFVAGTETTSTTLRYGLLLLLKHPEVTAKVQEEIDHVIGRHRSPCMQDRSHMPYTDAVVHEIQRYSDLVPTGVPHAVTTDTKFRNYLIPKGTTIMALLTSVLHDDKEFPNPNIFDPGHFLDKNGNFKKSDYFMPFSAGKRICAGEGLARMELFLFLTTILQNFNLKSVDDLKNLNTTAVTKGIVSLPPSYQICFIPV

CYP 2C9 = CYP 2C9 (Homo sapiens, UniProt P11712)
CYP 2C19 = CYP 2C19 (Homo sapiens, UniProt P33261)
CYP 2D6 = CYP 2D6 (Homo sapiens, UniProt P10635)
Chain of CYP 2D6 (P10635 whole entry): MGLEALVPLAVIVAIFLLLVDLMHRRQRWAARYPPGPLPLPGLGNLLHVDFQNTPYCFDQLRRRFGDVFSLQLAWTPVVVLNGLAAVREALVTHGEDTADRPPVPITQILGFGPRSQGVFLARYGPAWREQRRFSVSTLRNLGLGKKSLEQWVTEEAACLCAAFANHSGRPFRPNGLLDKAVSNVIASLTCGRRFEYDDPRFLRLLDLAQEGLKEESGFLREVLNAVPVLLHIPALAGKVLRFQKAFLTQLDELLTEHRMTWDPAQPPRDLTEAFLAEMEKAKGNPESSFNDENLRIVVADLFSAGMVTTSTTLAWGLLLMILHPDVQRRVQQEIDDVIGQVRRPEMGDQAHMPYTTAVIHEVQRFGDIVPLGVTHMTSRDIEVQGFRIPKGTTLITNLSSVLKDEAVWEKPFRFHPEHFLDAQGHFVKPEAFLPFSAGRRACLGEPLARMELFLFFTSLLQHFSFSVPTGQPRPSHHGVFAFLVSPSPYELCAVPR

T1 sequence (P08183 whole entry): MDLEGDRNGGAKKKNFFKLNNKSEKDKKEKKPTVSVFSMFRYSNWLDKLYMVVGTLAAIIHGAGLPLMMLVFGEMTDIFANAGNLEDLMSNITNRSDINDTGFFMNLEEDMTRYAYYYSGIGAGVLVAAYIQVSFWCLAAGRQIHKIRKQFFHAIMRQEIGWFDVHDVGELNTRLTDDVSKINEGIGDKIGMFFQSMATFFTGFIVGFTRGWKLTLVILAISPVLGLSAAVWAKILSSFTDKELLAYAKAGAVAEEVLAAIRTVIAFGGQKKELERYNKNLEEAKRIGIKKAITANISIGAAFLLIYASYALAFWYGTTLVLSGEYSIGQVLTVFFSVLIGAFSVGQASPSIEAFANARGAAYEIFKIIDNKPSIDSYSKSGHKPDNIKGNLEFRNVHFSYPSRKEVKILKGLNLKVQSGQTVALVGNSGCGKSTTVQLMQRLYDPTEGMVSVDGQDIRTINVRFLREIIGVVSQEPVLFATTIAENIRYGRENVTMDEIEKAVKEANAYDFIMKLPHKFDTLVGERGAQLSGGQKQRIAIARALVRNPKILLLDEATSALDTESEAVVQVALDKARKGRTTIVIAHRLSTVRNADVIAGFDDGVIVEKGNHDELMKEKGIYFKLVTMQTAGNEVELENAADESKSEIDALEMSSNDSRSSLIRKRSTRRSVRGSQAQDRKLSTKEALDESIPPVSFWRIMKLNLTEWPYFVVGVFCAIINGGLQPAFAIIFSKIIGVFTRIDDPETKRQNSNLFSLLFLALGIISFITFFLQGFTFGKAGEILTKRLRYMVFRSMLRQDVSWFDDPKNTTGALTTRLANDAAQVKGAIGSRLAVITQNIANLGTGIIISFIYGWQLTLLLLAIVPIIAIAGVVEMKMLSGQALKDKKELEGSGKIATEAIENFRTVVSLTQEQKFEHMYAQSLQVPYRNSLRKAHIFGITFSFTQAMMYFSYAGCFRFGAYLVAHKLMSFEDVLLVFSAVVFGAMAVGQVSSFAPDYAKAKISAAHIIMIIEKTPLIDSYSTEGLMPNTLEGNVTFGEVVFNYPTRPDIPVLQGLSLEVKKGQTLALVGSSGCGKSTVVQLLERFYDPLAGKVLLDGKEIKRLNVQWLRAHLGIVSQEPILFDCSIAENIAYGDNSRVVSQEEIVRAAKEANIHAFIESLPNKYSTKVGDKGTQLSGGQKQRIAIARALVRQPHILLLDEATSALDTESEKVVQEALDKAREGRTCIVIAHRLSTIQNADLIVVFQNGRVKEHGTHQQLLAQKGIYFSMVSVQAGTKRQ
Chain of CYP 2C9 (P11712 whole entry): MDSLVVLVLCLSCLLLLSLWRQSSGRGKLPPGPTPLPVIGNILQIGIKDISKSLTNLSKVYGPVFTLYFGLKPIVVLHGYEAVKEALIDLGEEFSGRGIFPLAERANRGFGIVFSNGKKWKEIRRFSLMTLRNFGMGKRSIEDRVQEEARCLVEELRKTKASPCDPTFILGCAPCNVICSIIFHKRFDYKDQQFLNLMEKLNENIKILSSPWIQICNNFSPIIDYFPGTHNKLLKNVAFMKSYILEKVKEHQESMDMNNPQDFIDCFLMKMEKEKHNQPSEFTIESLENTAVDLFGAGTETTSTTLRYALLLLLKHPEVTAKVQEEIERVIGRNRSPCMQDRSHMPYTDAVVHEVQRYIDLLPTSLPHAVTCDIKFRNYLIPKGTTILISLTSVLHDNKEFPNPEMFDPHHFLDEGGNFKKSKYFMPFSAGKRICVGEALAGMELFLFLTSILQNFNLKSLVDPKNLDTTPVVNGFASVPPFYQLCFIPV
Chain of CYP 2C19 (P33261 whole entry): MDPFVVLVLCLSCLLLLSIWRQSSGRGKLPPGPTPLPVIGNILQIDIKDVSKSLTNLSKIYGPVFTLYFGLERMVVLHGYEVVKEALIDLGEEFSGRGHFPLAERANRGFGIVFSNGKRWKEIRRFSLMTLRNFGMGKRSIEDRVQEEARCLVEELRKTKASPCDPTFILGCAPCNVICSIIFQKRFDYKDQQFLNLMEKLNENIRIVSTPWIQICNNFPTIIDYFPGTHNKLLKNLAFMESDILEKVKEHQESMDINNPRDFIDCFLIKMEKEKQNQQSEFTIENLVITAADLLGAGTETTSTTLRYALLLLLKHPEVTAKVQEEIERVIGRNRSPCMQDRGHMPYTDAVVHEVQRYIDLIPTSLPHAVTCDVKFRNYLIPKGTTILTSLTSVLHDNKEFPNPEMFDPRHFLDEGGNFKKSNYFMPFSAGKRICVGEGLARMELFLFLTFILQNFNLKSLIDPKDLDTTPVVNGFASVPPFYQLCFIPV

substrate of membrane transport protein P-gp (P-gp [1]): possible substrate
inhibitor of P-gp (P-gp [2]): weak inhibitor
inhibition of CYP isozyme 1A2 (CYP 1A2): inhibits
inhibition of CYP isozyme 2B6 (CYP 2B6): inhibits
inhibition of CYP isozyme 2C8 (CYP 2C8): inhibits
inhibition of CYP isozyme 2C9 (CYP 2C9): inhibits
inhibition of CYP isozyme 2C19 (CYP 2C19): inhibits
inhibition of CYP isozyme 2D6 (CYP 2D6): inhibits
inhibition of CYP isozyme 3A4/5 (CYP 3A4/5): inhibits
SMILES: CN(C)c1ccc2nc3ccc(=[N+](C)C)cc-3sc2c1 [Methylene blue, Methylthioninium Chloride (Methylene Blue)]
